What was measured:
Assay type in all cases: tissue-based
[1] = target: Kappa-type opioid receptor (Cavia porcellus, UniProt P41144); experiment: Binding to kappa opioid receptor by using [3H]U-69593 as radioligand in guinea pig cerebellum
Mu-type opioid receptor = Mu-type opioid receptor (Cavia porcellus, UniProt P97266); experiment: Binding to mu opioid receptor by using [3H]DAMGO as radioligand in guinea pig brain minus cerebellum
[2] = target: Mu-type opioid receptor (Cavia porcellus) (UniProt P97266); experiment: Binding to mu opioid receptor by using [3H]DAMGO as radioligand in guinea pig brain minus cerebellum at 10 uM
Sequence of Mu-type opioid receptor (Cavia porcellus) (P97266 whole entry): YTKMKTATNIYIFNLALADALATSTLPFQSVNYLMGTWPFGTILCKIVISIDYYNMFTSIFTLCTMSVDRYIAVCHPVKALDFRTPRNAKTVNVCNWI

Sequence of Mu-type opioid receptor (P97266 whole entry): as above
Sequence of Kappa-type opioid receptor (P41144 whole entry): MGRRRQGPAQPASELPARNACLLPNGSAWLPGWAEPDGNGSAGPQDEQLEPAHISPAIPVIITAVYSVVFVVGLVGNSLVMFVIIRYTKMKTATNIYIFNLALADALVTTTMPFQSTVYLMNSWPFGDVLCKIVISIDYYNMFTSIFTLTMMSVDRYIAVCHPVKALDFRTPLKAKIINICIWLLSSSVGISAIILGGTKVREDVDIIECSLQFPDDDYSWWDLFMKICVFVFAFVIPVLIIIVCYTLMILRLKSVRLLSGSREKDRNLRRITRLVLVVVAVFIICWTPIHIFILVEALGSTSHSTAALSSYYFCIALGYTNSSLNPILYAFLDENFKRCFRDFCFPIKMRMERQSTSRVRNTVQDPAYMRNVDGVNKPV

Compound	IC50 [1] [µM]	IC50 (Mu-type opioid receptor) [µM]	inhibition [2] [%]
CN1CC[C@]23c4c5ccc(-c6ccsc6)c4O[C@H]2[C@@H](O)C=C[C@H]3[C@H]1C5	15	3.3	–
CN1CC[C@]23c4c5ccc(-c6ccccc6)c4O[C@H]2[C@@H](O)C=C[C@H]3[C@H]1C5	76	–	43
CN1CC[C@]23c4c5ccc(-c6cccs6)c4O[C@H]2[C@@H](O)C=C[C@H]3[C@H]1C5	25	–	49
CC(=O)c1ccc2c3c1O[C@H]1[C@@H](O)C=C[C@H]4[C@@H](C2)N(C)CC[C@@]341	5.1	0.64	–
CN1CC[C@]23c4c5ccc(-c6cc7ccccc7s6)c4O[C@H]2[C@@H](O)C=C[C@H]3[C@H]1C5	126	–	41
Cc1ccc2c3c1O[C@H]1[C@@H](O)C=C[C@H]4[C@@H](C2)N(C)CC[C@@]341	36	4.5	–
CN1CC[C@]23c4c5ccc(OS(=O)(=O)C(F)(F)F)c4O[C@H]2[C@@H](O)C=C[C@H]3[C@H]1C5	111	6.4	–
CN1CC[C@]23c4c5cccc4O[C@H]2[C@@H](O)C=C[C@H]3[C@H]1C5	11	0.53	–
CN1CC[C@]23c4c5ccc(-c6ccoc6)c4O[C@H]2[C@@H](O)C=C[C@H]3[C@H]1C5	0.91	0.2	–
CN1CC[C@]23c4c5ccc(-c6ccco6)c4O[C@H]2[C@@H](O)C=C[C@H]3[C@H]1C5	9.5	2.6	–

Reference: ChEMBL document CHEMBL1151595, “Palladium-catalyzed synthesis of C3-substituted 3-deoxymorphines” (Bioorg Med Chem Lett, 1994)
